The source of these data is PubChem BioAssay (NCI).

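Growth conditions: 96-well plates. Treatment: test compound, 48 hours, 5 concentrations. Analysis: linear interpolation between bracketing concentrations; unreached endpoints set to highest concentration. Here, GI50 denotes the concentration required for 50% inhibition of growth. Definition used: TGI = concentration required for complete inhibition of growth.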

Common to all, as to experiment: NCI-60 cell line screen, 48 h
Test [1] deals with SF-295 CNS.
For test [2], the system named is NCI-H23 lung.
Test [3] deals with HS 578T breast.
In test [4] the test system is ACHN renal.
Test [5] relates to KM12 colon.
The subject of test [6] is OVCAR-3 ovarian.
Test [7] has as its system UACC-62 melanoma.
For test [8], the system named is SN12C renal.
Test [9] has as its system PC-3 prostate.
Test [10] has as its system SW-620 colon.

Take `C=C1CCC2C3(C)COC(c4c(OC)cccc4OC)OC3CCC2(C)C1C/C=C1/C(=O)OCC1O` (stereo not given): the GI50 in test [1] was 5.28 µM; in test [2] it was 3.98 µM; in test [3] it was 2.71 µM; in test [4] it was 2.38 µM; in test [5] it was 2.21 µM; in test [6], 1.94 µM. Moreover, the GI50 was 3.32 µM in test [7], 2.33 µM in test [8], 2.66 µM in test [9] and 1.71 µM in test [10]. Also, the TGI in test [1] is 18.1 µM; in test [2], 15 µM; in test [3] it was 10.9 µM; in [4], 5.85 µM; in test [5], 4.99 µM; in test [6] it was 3.95 µM. Moreover, the TGI in test [7] worked out at 15 µM; in test [8] it was 8.27 µM; in [9], 11.7 µM; in [10] it was 3.23 µM.

On to `COC(=O)c1ccc2c(c1)C(=O)c1c-2n(C)c(=O)c2cc(OC)c(OC)cc12`, for which the GI50 in [1] is 34 µM; in [2], greater than 50 µM; in [3], greater than 50 µM; in test [4] it was greater than 50 µM; in test [5] it was greater than 50 µM; in test [6], 44.6 µM. Also, the GI50 in test [7], in test [8], in test [9] and in test [10] was greater than 50 µM throughout. Besides, the TGI in test [1], in test [2], in [3], in test [4], in test [5] and in test [6] was greater than 50 µM each time. The TGI in test [7], in [8], in test [9] and in [10] was greater than 50 µM throughout.

For the compound `O=C(N=Nc1c(O)[nH]c2ccccc12)c1oc2ccccc2c1CN1CCN(c2ccccc2)CC1`, the GI50 in test [1] was 5.11 µM; in test [2] it was 2.01 µM; in test [3], 1.69 µM; in test [4], 1.02 µM; in test [5], 7.47 µM; in test [6] it was 1.02 µM. Further, the GI50 was 2.38 µM in test [7], 1.3 µM in test [8], 1.59 µM in test [9] and 1.5 µM in test [10]. Moreover, the TGI in [1] is 12.5 µM; in test [2] it was 8.73 µM; in test [3] it was 10.4 µM; in test [4], 2.53 µM; in [5] it was greater than 50 µM; in [6], 1.94 µM. The TGI in test [7] came out at 10 µM; in test [8], 3.9 µM; in test [9], 7.23 µM; in test [10] it was 7.47 µM.

Consider `CCC(C)[C@H](NC(=O)NC(=O)NC(=O)CI)C(=O)OC` (stereo not given in full), for which the GI50 in test [1] was 15.2 µM; in [2], 16.3 µM; in test [3], 23.5 µM; in [4], 2.11 µM; in test [5], 16.6 µM; in test [6] it was 2.2 µM. The GI50 in test [7] was 11.3 µM; in test [8] it was 4.28 µM; in test [9], 12.2 µM; in test [10], 1.86 µM. For the same compound, the TGI was 28.9 µM in test [1]; 35.8 µM in test [2]; 73.5 µM in test [3]; 4.43 µM in test [4]; 33.2 µM in test [5]; 4.66 µM in [6]. For the same compound, the TGI in test [7] came out at 24.7 µM; in test [8], 20.4 µM; in test [9], 26.7 µM; in [10], 3.61 µM.

For the compound `Nc1nc2c(nnn2C2OC(CO)C(O)C2O)c(=O)[nH]1` (stereo not given), the GI50 in test [1] is 1.21 µM; in test [2] it was 1.54 µM; in test [3] it was 12 µM; in test [4] it was 0.298 µM; in [5], 0.97 µM; in [6] it was 1.17 µM. Further, the GI50 in test [7] was 1.14 µM; in test [8], 3.25 µM; in test [9], 0.617 µM; in test [10], 1.18 µM. Also, the TGI is greater than 100 µM in test [1]; greater than 100 µM in test [2]; greater than 100 µM in [3]; greater than 100 µM in test [4]; greater than 46.8 µM in test [5]; 10.7 µM in test [6]. The TGI in test [7] was 12.9 µM; in [8], greater than 100 µM; in test [9] it was greater than 44 µM; in test [10], greater than 100 µM.

Regarding `CC(C)(CCN=C(N)Nc1ccccn1)c1ccc(C(F)(F)F)cc1`, the GI50 was 14.9 µM in [1]; 12.7 µM in test [2]; 18.1 µM in test [3]; 13.5 µM in [4]; 15.8 µM in [5]; 13.7 µM in [6]. For the same compound, the GI50 in test [7] is 15.7 µM; in [8] it was 15.1 µM; in test [9], 14.2 µM; in [10], 16.1 µM. Further, the TGI in [1] came out at 29.3 µM; in test [2] it was 27.6 µM; in [3] it was 39.3 µM; in test [4], 26.5 µM; in test [5], 30.9 µM; in test [6] it was 29.5 µM. For the same compound, the TGI was 29.8 µM in test [7], 29.8 µM in test [8], 28.9 µM in [9] and 34 µM in test [10].
